In the data set the test system is Hepatotoxicity. Kind of data set: Literature-mined public compounds from Greene et al multi-species hepatotoxicity modelling dataset.

Structures are written as SMILES.

On to `CCOc1nc2cccc(C(=O)O)c2n1Cc1ccc(-c2ccccc2-c2nnn[nH]2)cc1`, for which the Hepatotoxicity result is “WE: Weak evidence (<10 case reports) of human hepatotoxicity”.

As for `CCCc1nc2c(C)cc(-c3nc4ccccc4n3C)cc2n1Cc1ccc(-c2ccccc2C(=O)O)cc1`, the Hepatotoxicity result was “WE: Weak evidence (<10 case reports) of human hepatotoxicity”. Consider `CCCCC(=O)N(Cc1ccc(-c2ccccc2-c2nnn[nH]2)cc1)[C@H](C(=O)O)C(C)C`, for which the Hepatotoxicity entry is “WE: Weak evidence (<10 case reports) of human hepatotoxicity”. The value for `CC(C)(C)NCC(O)c1cc(O)cc(O)c1.O=S(=O)(O)O` (stereo unspecified) was “HH: Evidence of human hepatotoxicity”.

With `COc1cccc(OC)c1C(=O)N[C@@H]1C(=O)N2[C@@H]1SC(C)(C)[C@@H]2C(=O)[O-].[Na+]`, the Hepatotoxicity entry is given as “HH: Evidence of human hepatotoxicity”. `CN[C@@H]1[C@H](O)[C@H](NC)[C@H]2O[C@@]3(O)C(=O)C[C@@H](C)O[C@H]3O[C@@H]2[C@H]1O.Cl`: the Hepatotoxicity result is listed as “HH: Evidence of human hepatotoxicity”. In the case of `CCO.C[C@H]1c2cccc(O)c2C(=O)C2=C(O)[C@]3(O)C(=O)C(C(N)=O)=C(O)[C@@H](N(C)C)[C@@H]3[C@@H](O)[C@@H]21.Cl.O`, the Hepatotoxicity entry is “HH: Evidence of human hepatotoxicity”. In the case of `Cl.NCCNCCNCCN` it was “HH: Evidence of human hepatotoxicity”; in that of `CCN(CC)CCNC(=O)c1cc(Cl)c(N)cc1OC.Cl`, “HH: Evidence of human hepatotoxicity”. For the molecule `CNS(=O)(=O)Cc1ccc2[nH]cc(CCN(C)C)c2c1`, the Hepatotoxicity result is reported as “NE: No evidence of hepatotoxicity in any species”. The value for `CN(C)CCN(Cc1cccs1)c1ccccn1` was “HH: Evidence of human hepatotoxicity”.

On to `Cl.Cl.OCCN1CCN(CC/C=C2/c3ccccc3Sc3ccc(C(F)(F)F)cc32)CC1`, for which the Hepatotoxicity result is on record as “NE: No evidence of hepatotoxicity in any species”.

Turning to `CCCCCOC(=O)c1ccccc1C(=O)OCCCCC`, the Hepatotoxicity result is reported as “AH: Evidence for animal hepatotoxicity but not tested in humans”.

Turning to `CC1=C(CC(=O)O)c2cc(F)ccc2/C1=C\c1ccc([S+](C)[O-])cc1` (stereo unspecified), the Hepatotoxicity result was “HH: Evidence of human hepatotoxicity”. In the case of `CCOC(=O)[C@H](CCc1ccccc1)N[C@@H](C)C(=O)N1Cc2ccccc2C[C@H]1C(=O)O` it was “HH: Evidence of human hepatotoxicity”; in that of `Cl.Nc1cc(Cl)cc(Cl)c1`, “NE: No evidence of hepatotoxicity in any species”. As to `NC(CS/C(Cl)=C/Cl)C(=O)O` (stereo unspecified), the Hepatotoxicity entry was “AH: Evidence for animal hepatotoxicity but not tested in humans”. The value for `S=C=Nc1ccc2ccccc2c1` was “WE: Weak evidence (<10 case reports) of human hepatotoxicity”; that for `C=CC(O)CC#N` (stereo unspecified) was “NE: No evidence of hepatotoxicity in any species”. `Nc1cc(Cl)c(O)c(Cl)c1.Nc1ccc(O)cc1`: the Hepatotoxicity result is “AH: Evidence for animal hepatotoxicity but not tested in humans”.

As to `CO/N=C(/C(=O)N[C@@H]1C(=O)N2C(C(=O)[O-])=C(CSc3nc(=O)c(O)nn3C)CS[C@H]12)c1csc(N)n1.[Na+]`, the Hepatotoxicity result is recorded as “HH: Evidence of human hepatotoxicity”. In the case of `O=C1NC(=O)C(O)(O)C(=O)N1` it was “NE: No evidence of hepatotoxicity in any species”; in that of `Oc1ccccc1Br`, “AH: Evidence for animal hepatotoxicity but not tested in humans”; in that of `O=C(O)COc1ccc(C(=O)c2cccs2)c(Cl)c1Cl`, “HH: Evidence of human hepatotoxicity”. The value for `CCN(CC)Cc1cc(Nc2ccnc3cc(Cl)ccc23)ccc1O.Cl.Cl.Cl` was “HH: Evidence of human hepatotoxicity”; that for `N#CC(C#N)=NNc1ccc(OC(F)(F)F)cc1` was “AH: Evidence for animal hepatotoxicity but not tested in humans”. `O=C1NCN(c2ccccc2)C12CCN(CCCC(c1ccc(F)cc1)c1ccc(F)cc1)CC2`: the Hepatotoxicity entry is “HH: Evidence of human hepatotoxicity”.

On to `C[n+]1ccc(-c2cc[n+](C)cc2)cc1`, for which the Hepatotoxicity entry was “AH: Evidence for animal hepatotoxicity but not tested in humans”. In the case of `Nc1ccc(Cc2ccc(N)cc2)cc1` it was “AH: Evidence for animal hepatotoxicity but not tested in humans”; in that of `C=C1CC[C@@]2(O)[C@H]3Cc4ccc(O)c5c4[C@@]2(CCN3CC2CC2)[C@H]1O5`, “NE: No evidence of hepatotoxicity in any species”. `CCSCC[C@H](N)C(=O)O` (stereo in doubt; form 1) [ETHIONINE]: the Hepatotoxicity result was “HH: Evidence of human hepatotoxicity”. With `Cl[C@H]1[C@H](Cl)[C@@H](Cl)[C@@H](Cl)[C@H](Cl)[C@H]1Cl` (stereo in doubt; form 1) [LINDANE], the Hepatotoxicity entry is on record as “NE: No evidence of hepatotoxicity in any species”. For `C[C@H](CCC(=O)O)[C@H]1CC[C@H]2[C@@H]3[C@@H](O)C[C@@H]4C[C@H](O)CC[C@]4(C)[C@H]3CC[C@]12C` (stereo in doubt; form 1) [URSODIOL], the Hepatotoxicity result is listed as “HH: Evidence of human hepatotoxicity”. In the case of `CCSCC[C@H](N)C(=O)O` (stereo in doubt; form 2) [ETHIONINE] it was “AH: Evidence for animal hepatotoxicity but not tested in humans”. `Cl[C@H]1[C@H](Cl)[C@@H](Cl)[C@@H](Cl)[C@H](Cl)[C@H]1Cl` (stereo in doubt; form 2) [LINDANE]: the Hepatotoxicity entry was “HH: Evidence of human hepatotoxicity”.

In the case of `C[C@H](CCC(=O)O)[C@H]1CC[C@H]2[C@@H]3[C@@H](O)C[C@@H]4C[C@H](O)CC[C@]4(C)[C@H]3CC[C@]12C` (stereo in doubt; form 2) [URSODIOL], the Hepatotoxicity entry is recorded as “WE: Weak evidence (<10 case reports) of human hepatotoxicity”. Regarding `ClCCCl` [1,2-DICHLOROETHANE], the Hepatotoxicity result was “AH: Evidence for animal hepatotoxicity but not tested in humans”. Turning to `Clc1ccc(Cl)cc1` [1,4-DICHLOROBENZENE], the Hepatotoxicity result is given as “AH: Evidence for animal hepatotoxicity but not tested in humans”. Take `S=C=Nc1cccc2ccccc12` [1-NAPHTHYLISOTHIOCYANATE]: the Hepatotoxicity entry is “HH: Evidence of human hepatotoxicity”. In the case of `CCCC(C)(F)F` [2,2-DIFLUOROPENTANE] it was “AH: Evidence for animal hepatotoxicity but not tested in humans”. The value for `Clc1cc2c(cc1Cl)Oc1cc(Cl)c(Cl)cc1O2` [2,3,7,8-TETRACHLORODIBENZO-P-DIOXIN] was “AH: Evidence for animal hepatotoxicity but not tested in humans”. For `O=[N+]([O-])c1ccc(O)c([N+](=O)[O-])c1` [2,4-DINITROPHENOL], the Hepatotoxicity result was “AH: Evidence for animal hepatotoxicity but not tested in humans”.

In the case of `CC(=O)Nc1ccc2c(c1)Cc1ccccc1-2` [2-ACETYLAMINOFLUORENE], the Hepatotoxicity entry was “HH: Evidence of human hepatotoxicity”. The value for `Cc1ccc2cc3c(ccc4ccccc43)c3c2c1CC3` [3-METHYLCHOLANTHRENE] was “HH: Evidence of human hepatotoxicity”; that for `Nc1nc(NC2CC2)c2ncn([C@H]3C=C[C@@H](CO)C3)c2n1` [ABACAVIR] was “HH: Evidence of human hepatotoxicity”. For `CC(=O)CC(c1ccc([N+](=O)[O-])cc1)c1c(O)c2ccccc2oc1=O` (stereo unspecified) [ACENOCOUMAROL], the Hepatotoxicity result is recorded as “HH: Evidence of human hepatotoxicity”.

The record behind these values is ChEMBL document CHEMBL1697692, “Developing structure-activity relationships for the prediction of hepatotoxicity” (Chem Res Toxicol, 2010).
